Experimental data reported in patent US20240217967A1, “INDOLINE DERIVATIVES AS DDRS INHIBITORS” (CHIESI FARMACEUTICI S.P.A., priority 2021, published 2024).

How the values were obtained:
[1] = biological target: T1, DDR1 (Homo sapiens, UniProt Q08345); assay: DDR1 LanthaScreen Europium Kinase Binding assay; settings: binding affinity; IC50 converted in Ki using Cheng-Prusoff; read-out: Ki DDR1
Method in brief: (§1)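 Binding by TR-FRET tracer displacement: compounds incubated 1 h at room temperature with 5 nM DDR1 plus 20 nM Kinase Tracer 178, or 5 nM DDR2 plus 10 nM tracer, and 2 nM Eu anti-GST antibody in pH 7.5 HEPES/MgCl2/EGTA/BRIJ35 buffer. 665/615 nm ratio gave four-parameter IC50, converted to Ki via Cheng-Prusoff.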

[2] = biological target: T2, DDR2 (Homo sapiens, UniProt Q16832); assay: DDR2 LanthaScreen Europium Kinase Binding assay; settings: binding affinity; IC50 converted in Ki using Cheng-Prusoff; read-out: Ki DDR2
T2 sequence (Q16832 22-855): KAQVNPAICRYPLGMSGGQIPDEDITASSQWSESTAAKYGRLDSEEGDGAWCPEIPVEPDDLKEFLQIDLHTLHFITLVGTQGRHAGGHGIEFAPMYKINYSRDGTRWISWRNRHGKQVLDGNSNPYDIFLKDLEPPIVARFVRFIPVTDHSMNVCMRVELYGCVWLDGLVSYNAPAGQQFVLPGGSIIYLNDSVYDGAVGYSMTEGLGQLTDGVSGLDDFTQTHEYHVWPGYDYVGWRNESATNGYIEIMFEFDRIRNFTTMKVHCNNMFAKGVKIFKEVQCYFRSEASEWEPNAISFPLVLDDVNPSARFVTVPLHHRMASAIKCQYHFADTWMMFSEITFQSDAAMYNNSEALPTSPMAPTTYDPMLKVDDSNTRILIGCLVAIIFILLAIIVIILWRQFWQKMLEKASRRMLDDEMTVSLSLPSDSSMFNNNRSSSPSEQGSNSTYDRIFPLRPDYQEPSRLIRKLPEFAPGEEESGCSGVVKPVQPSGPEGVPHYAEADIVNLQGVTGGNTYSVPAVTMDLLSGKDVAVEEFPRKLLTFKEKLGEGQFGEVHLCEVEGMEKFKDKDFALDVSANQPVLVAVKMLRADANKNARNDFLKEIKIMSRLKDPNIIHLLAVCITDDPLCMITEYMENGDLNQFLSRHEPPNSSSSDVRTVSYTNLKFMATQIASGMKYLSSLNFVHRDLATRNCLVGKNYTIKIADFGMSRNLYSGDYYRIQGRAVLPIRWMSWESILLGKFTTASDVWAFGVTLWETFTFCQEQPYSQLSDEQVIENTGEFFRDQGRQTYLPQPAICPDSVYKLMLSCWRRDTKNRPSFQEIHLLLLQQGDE
Method in brief: as §1

[3] = biological target: T1, DDR1; assay: DDR1 cell based assay (PathHunter U2OS DDR1, collagen II stimulation); settings: U2OS-DDR1 cells, bovine Type II Collagen stimulation
Method in brief: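 Receptor activation measured by enzyme-fragment complementation luminescence in engineered U2OS cells. Compound added 30 min before overnight challenge with 20 μg/ml bovine collagen II; data scaled between vehicle and collagen-stimulated controls, IC50 derived by four-parameter variable-slope fitting.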

[4] = biological target: T2, DDR2; assay: DDR2 cell based assay (phospho-ELISA in HEK293T-DDR2 recombinant cells, collagen II stimulation); settings: bovine Type II Collagen stimulation
Experimental: The inhibition of DDR2 phosphorylation by compounds was evaluated in HEK293T-DDR2 recombinant cells by phospho-ELISA assay. Briefly, HEK293T-DDR2 cells were seeded in poly-D-lysine-coated 24-well plates at a density of 250.000 cells/well and incubated for 1.5 hours at 37° C. and 5% CO2 in DMEM+10% FBS. After that, the medium was changed to serum-free DMEM and cells were incubated for 3 hours. Then. test compounds were added at different concentrations 30 minutes before stimulation with bovine Type II Collagen at 50 μg/ml for further 3 hours. For DDR2 phospho-ELISA assay (DuoSet IC Human Phospho-DDR2; R&D Systems), protein extracts were obtained by adding 60 μl/well of lysis buffer prepared according to the manufacturer's instructions. Protein concentration in the samples was determined by BCA assay and the levels of phospho-DDR2 were determined following R&D Systems indications. Raw data were normalized to maximal inhibition control (0% for normalization) and positive control (100% for normalization; cells treated with […] collagen II) and IC50 parameters were calculated in GraphPad Prism 8.0 software, using sigmoidal dose-response curve fitting with variable slope.

T1 sequence (Q08345 19-913): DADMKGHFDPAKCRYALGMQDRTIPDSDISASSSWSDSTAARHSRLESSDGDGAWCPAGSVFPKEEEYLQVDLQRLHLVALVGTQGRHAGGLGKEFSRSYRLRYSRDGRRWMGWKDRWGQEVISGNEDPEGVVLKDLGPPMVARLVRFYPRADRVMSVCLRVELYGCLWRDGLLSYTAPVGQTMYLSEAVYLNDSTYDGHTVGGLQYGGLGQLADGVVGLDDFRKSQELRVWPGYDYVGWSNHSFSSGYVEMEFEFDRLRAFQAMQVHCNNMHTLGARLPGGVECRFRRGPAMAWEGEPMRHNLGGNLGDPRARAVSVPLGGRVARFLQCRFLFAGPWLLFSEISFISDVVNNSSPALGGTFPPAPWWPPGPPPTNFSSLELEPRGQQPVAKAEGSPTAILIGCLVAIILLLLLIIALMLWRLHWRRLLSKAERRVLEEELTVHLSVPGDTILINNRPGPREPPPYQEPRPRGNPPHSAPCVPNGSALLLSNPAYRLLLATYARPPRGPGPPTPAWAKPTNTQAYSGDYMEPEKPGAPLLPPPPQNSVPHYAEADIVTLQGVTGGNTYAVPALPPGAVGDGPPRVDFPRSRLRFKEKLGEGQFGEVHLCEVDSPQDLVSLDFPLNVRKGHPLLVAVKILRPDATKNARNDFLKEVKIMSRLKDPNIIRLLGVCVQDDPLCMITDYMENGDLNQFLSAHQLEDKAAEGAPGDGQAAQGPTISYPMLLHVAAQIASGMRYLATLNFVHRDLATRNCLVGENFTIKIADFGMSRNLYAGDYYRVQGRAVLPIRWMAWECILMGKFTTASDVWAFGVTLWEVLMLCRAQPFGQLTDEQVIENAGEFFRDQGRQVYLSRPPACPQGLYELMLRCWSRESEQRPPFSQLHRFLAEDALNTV

Ki [1] [nM] | Ki [2] [nM] | IC50 [3] [nM] | IC50 [4] [nM] | SMILES
< 25 | < 25 | < 25 | 50 to 80 | Cc1cn(-c2cc(NC(=O)c3ccc4c(c3)N(Cc3cnc5ccccn35)CC4)cc(C(F)(F)F)c2)cn1 [Example 1, 1-(imidazo[1,2-a]pyridin-3-ylmethyl)-N-(3-(4-methyl-1H-imidazol-1-yl)-5-(trifluoromethyl)phenyl)indoline-6-carboxamide]
< 25 | < 25 | < 25 | 50 to 80 | O=C(Nc1cc(F)cc(C(F)(F)F)c1)c1ccc2c(c1)N(Cc1cnc3ccccn13)CC2 [Example 59, N-(3-fluoro-5-(trifluoromethyl)phenyl)-1-(imidazo[1,2-a]pyridin-3-ylmethyl)indoline-6-carboxamide]
< 25 | < 25 | 25 to 50 | < 25 | Cc1cn(-c2cc(C(=O)Nc3ccc4c(c3)N(C(=O)c3cnc5[nH]ncc5c3)CC4)cc(C(F)(F)F)c2)cn1 [Example 21, N-(1-(1H-pyrazolo[3,4-b]pyridine-5-carbonyl)indolin-6-yl)-3-(4-methyl-1H-imidazol-1-yl)-5-(trifluoromethyl)benzamide]

Further lines, the compound ahead of its results:

SMILES | Ki [1] [nM] | Ki [2] [nM] | IC50 [3] [nM] | IC50 [4] [nM]
Cc1cn(-c2cc(NC(=O)c3ccc4c(c3)N(Cc3cnc5[nH]nc(C)c5c3)CC4)cc(C(F)(F)F)c2)cn1 [Example 7, N-(3-(4-methyl-1H-imidazol-1-yl)-5-(trifluoromethyl)phenyl)-1-((3-methyl-1H-pyrazolo[3,4-b]pyridin-5-yl)methyl)indoline-6-carboxamide] | < 25 | < 25 | < 25 | 25 to 50
CN1CCN(Cc2ccc(NC(=O)c3ccc4c(c3)N(Cc3cnc5[nH]nc(N6CCOCC6)c5c3)CC4)cc2C(F)(F)F)CC1 [Example 89, N-[4-[(4-methylpiperazin-1-yl)methyl]-3-(trifluoromethyl)phenyl]-1-[(3-morpholino-1H-pyrazolo[3,4-b]pyridin-5-yl)methyl]indoline-6-carboxamide] | < 25 | < 25 | < 25 | 50 to 80
